US4411908A, “Imidazoline derivatives as presynaptic α2 -adrenoreceptor antagonists” (priority 1981, dated 1983)
Structures can show the parent of a compound that is named as a salt. Where two headings read alike, the source gives them in different places.

Experiments:
[1] = system: postsynaptic α-adrenoreceptor (pithed rat); experiment: Postsynaptic α-adrenoreceptor agonist activity in the pithed rat (diastolic blood pressure); settings: for i.v. dose causing 50 mmHg increase in diastolic blood pressure: Table 5, naive pithed rats
Description: In vivo presynaptic α-adrenoreceptor antagonist activity was determined using the methods outlined in section 2.

[2] = target: T1, presynaptic α2-adrenoreceptor (rat vas deferens) (Rattus norvegicus, UniProt P22909); experiment: Presynaptic α-adrenoreceptor antagonism vs clonidine, isolated rat vas deferens (0.1 Hz stimulation); format: cell-based
T1 construct: on the rat vas deferens stimulated at a frequency of 0.1 Hz; from tissue; host or cells: isolated rat vas deferens
T1 sequence (P22909 1-465): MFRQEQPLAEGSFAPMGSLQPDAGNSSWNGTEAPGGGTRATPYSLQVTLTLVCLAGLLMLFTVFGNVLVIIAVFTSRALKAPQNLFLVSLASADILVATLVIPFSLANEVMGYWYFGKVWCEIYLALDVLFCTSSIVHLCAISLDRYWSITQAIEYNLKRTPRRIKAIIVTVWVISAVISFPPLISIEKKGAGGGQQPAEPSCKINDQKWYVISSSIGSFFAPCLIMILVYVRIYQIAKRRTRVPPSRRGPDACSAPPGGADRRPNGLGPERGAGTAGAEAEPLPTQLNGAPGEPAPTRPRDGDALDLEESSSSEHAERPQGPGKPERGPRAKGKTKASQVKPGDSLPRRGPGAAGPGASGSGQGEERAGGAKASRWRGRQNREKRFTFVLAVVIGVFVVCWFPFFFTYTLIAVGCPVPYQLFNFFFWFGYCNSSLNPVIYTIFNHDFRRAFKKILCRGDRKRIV

[3] = target: T2, postsynaptic α-adrenoreceptor (rat anococcygeus muscle) (Rattus norvegicus, UniProt P43140); experiment: Postsynaptic α-adrenoreceptor antagonism vs noradrenaline contractions, isolated rat anococcygeus muscle; format: cell-based
T2 construct: the rat anococcygeus muscle is used to establish postsynaptic α-adrenoreceptor activity; from tissue; host or cells: isolated rat anococcygeus muscle
T2 sequence (P43140 1-466): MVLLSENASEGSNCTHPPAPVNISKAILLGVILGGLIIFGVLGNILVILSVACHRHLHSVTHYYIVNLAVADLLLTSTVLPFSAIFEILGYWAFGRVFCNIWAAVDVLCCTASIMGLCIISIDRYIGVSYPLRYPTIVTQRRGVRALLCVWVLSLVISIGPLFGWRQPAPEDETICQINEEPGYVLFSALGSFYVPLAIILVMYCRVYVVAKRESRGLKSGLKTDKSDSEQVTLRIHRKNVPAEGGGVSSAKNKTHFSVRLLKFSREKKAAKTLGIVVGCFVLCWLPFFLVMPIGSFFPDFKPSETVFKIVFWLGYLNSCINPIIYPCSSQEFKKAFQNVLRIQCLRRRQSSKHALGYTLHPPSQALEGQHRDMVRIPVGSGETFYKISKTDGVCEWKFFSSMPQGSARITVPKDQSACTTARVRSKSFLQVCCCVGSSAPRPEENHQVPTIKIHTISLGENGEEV
Description: This in vitro model is particularly useful as an initial screen for studying presynaptic activity in isolation since the physiological nature of the vas deferens tissue is such that the postsynaptic receptors located therein are particularly inaccessible to exogenous agents. In consequence an alternative tissue, the rat anococcygeus muscle is used to establish postsynaptic α-adrenoreceptor activity. Antagonism of noradrenaline contractions is used to determine pA2 values at postsynaptic α-adrenoreceptors.

[4] = system: presynaptic α-adrenoreceptor (vas deferens, pithed rat); experiment: Presynaptic α-adrenoreceptor antagonism in the pithed rat (reversal of clonidine block on vas deferens, i.v.); settings: for i.v. dose of antagonist causing 50% reversal of clonidine block on vas deferens: Table 3, cumulative i.v. dosing, clonidine 100 μg/kg i.v., mean of a minimum of 4 rats
Description: The test drugs were injected intravenously in a cumulative dosing schedule and their abilities to reverse the inhibition of hypogastric nerve stimulation reflected their presynaptic antagonism.

[5] = target: T3, postsynaptic α-adrenoreceptor (anococcygeus muscle) (Rattus norvegicus, UniProt P43140); experiment: Postsynaptic α-adrenoreceptor agonist activity, isolated anococcygeus muscle; format: cell-based; settings: Table 4; negative log of molar concentration giving 50% maximum contraction; mean of a minimum of 3 experiments; read-out: Postsynaptic agonism pD2 (anococcygeus) (converted)
T3 construct: compound giving 50% maximum contraction in this instance, of the anococcygeus muscle; from tissue; host or cells: isolated anococcygeus muscle (rat)
T3 sequence (P43140 1-466): T2 sequence (P43140 1-466)

Clc1cccc(Cl)c1N=C1NCCN1 [Clonidine, reference compound] was tested, and the “i.v. dose causing 50 mmHg increase in diastolic blood pressure” value (shortened to “i.v. dose causing 50 mmHg increase”) [1] was 0.003 mg/kg.

c1ccc2oc(C3=NCCN3)cc2c1 [Compound A, 2-(2-benzofuranyl)-2-imidazoline, reference compound] gave a Kb ([2]; Table 4, isolated rat vas deferens, mean of a minimum of 3 experiments) of 832 nM and a Kb ([3]; Table 4, rat anococcygeus muscle, read-out: postsynaptic antagonist pA2 (rat anococcygeus muscle) (converted)) of 5750 nM.

In the case of Clc1ccc2c(c1)CC(C1=NCCN1)O2 (stereo not drawn) [Example 5, 2-[2-(5-chloro-2,3-dihydrobenzofuranyl)]-2-imidazoline hydrochloride], the Kb [2] is reported as 6.31 nM, the Pre/post synaptic ratio ([2]; antagonism vs clonidine (rat vas deferens) to antagonism vs noradrenaline (rat anococcygeus)) is reported as 100 and the Kb ([3]; Table 2, isolated rat anococcygeus, mean of a minimum of 5 experiments, read-out: Postsynaptic antagonism pA2 vs Noradrenaline (anococcygeus) (converted)) is reported as 631 nM. For the same compound, the “i.v. dose of antagonist causing 50% reversal of clonidine block on vas deferens” value [4] was 0.102 mg/kg, the “relative potency against in vivo presynaptic α-adrenoreceptor stimulant effects of clonidine” value ([4]; compound of Example 5 compared with phentolamine) was “approximately equipotent” and the “potency relative to yohimbine in pithed rats” value ([4]; vs yohimbine, i.v. (Table 3)) was “approximately 8 times”.

For c1ccc2c(c1)CC(C1=NCCN1)O2 (stereo not drawn) [Example 6, 2-[2-(2,3-dihydrobenzofuranyl)]-2-imidazoline hydrochloride], the Kb [2] was 3.16 nM, the “presynaptic α-adrenoreceptor antagonist properties” value ([2]; qualitative, b182: in both isolated tissues and intact animals) was “displays presynaptic α-adrenoreceptor antagonist properties” and the “potency as presynaptic α2 antagonist relative to the analogous dehydro compound” value ([2]; vs dehydro compound (Compound A), isolated vas deferens) was “more than 200 times”. For the same compound, the EC50 [5] was 501 nM, the “i.v. dose causing 50 mmHg increase” value [1] was 0.020 mg/kg and the “potency as postsynaptic α-adrenoreceptor agonist relative to phenylephrine” value ([1]; vs phenylephrine, conclusion of section 4) was “slightly more potent than phenylephrine”. The “i.v. dose causing 50% reversal of clonidine block on vas deferens” value ([4]; Table 5) was 0.030 mg/kg.

In the case of CN1CCN2c3ccccc3Cc3ccccc3C2C1 (stereo not drawn) [Mianserin HCl, reference compound], the “i.v. dose of antagonist causing 50% reversal of clonidine block on vas deferens” value [4] is reported as greater than 4.4 mg/kg.

In the case of CN1CCN2c3ccccc3Cc3ccccc3C2C1 (stereo not drawn) [Mianserin, reference compound], the “maximum reversal of the inhibitory effects of clonidine on hypogastric nerve stimulation” value ([4]; cumulative intravenous dose of 4.4 mg/kg) is reported as 36%.

Cc1ccc(N(CC2=NCCN2)c2cccc(O)c2)cc1 [Phentolamine mesylate, reference compound] was tested, and the “i.v. dose of antagonist causing 50% reversal of clonidine block on vas deferens” value [4] was 0.12 mg/kg.

CNC[C@H](O)c1cccc(O)c1 [Phenylephrine, reference compound] was tested, and the “i.v. dose causing 50 mmHg increase” value [1] was 0.030 mg/kg.

In the case of COC(=O)[C@@H]1[C@H]2C[C@H]3c4[nH]c5ccccc5c4CCN3C[C@@H]2CC[C@@H]1O [Yohimbine HCl, reference compound], the “i.v. dose of antagonist causing 50% reversal of clonidine block on vas deferens” value [4] is reported as 0.86 mg/kg.
